System: 252836-082-R-J2-PDC tumor spheroids, viability
Test: Anticancer human tumor 252836-082-R-J2-PDC patient-derived head and neck squamous cell carcinoma cell line growth inhibition [PI3K]
Conditions: spheroids with HUVEC and MSC; for viability, T/C: stronger effect = lower value
Summary of the method: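 Tumor cells were combined with HUVEC and MSCs into spheroids, then dosed with PI3K-inhibitor combinations over half-log ranges capped near clinical Cmax or 10 microM.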

[1] = curve of first compound, second compound 0.0316 µM
[2] = curve of first compound, second compound 0.1 µM
[3] = curve of first compound, second compound 0.316 µM
[4] = curve of first compound, second compound 1 µM
[5] = second compound 0.0316 µM, first compound 0.0316 µM
[6] = second compound 0.0316 µM, first compound 0.1 µM
[7] = second compound 0.0316 µM, first compound 0.316 µM
[8] = second compound 0.0316 µM, first compound 1 µM
[9] = second compound 0.0316 µM, first compound 3.16 µM
[10] = second compound 0.0316 µM, first compound 10 µM
[11] = second compound 0.1 µM, first compound 0.0316 µM
[12] = second compound 0.1 µM, first compound 0.1 µM
[13] = second compound 0.1 µM, first compound 0.316 µM
[14] = second compound 0.1 µM, first compound 1 µM
[15] = second compound 0.1 µM, first compound 3.16 µM
[16] = second compound 0.1 µM, first compound 10 µM
[17] = second compound 0.316 µM, first compound 0.0316 µM
[18] = second compound 0.316 µM, first compound 0.1 µM
[19] = second compound 0.316 µM, first compound 0.316 µM
[20] = second compound 0.316 µM, first compound 1 µM
[21] = second compound 0.316 µM, first compound 3.16 µM
[22] = second compound 0.316 µM, first compound 10 µM
[23] = second compound 1 µM, first compound 0.0316 µM
[24] = second compound 1 µM, first compound 0.1 µM
[25] = second compound 1 µM, first compound 0.316 µM
[26] = second compound 1 µM, first compound 1 µM
[27] = second compound 1 µM, first compound 3.16 µM
[28] = second compound 1 µM, first compound 10 µM
[29] = curve of first compound, second compound 0.00316 µM
[30] = curve of first compound, second compound 0.01 µM
[31] = second compound 0.00316 µM, first compound 0.0316 µM
[32] = second compound 0.00316 µM, first compound 0.1 µM
[33] = second compound 0.00316 µM, first compound 0.316 µM
[34] = second compound 0.00316 µM, first compound 1 µM
[35] = second compound 0.00316 µM, first compound 3.16 µM
[36] = second compound 0.00316 µM, first compound 10 µM
[37] = second compound 0.01 µM, first compound 0.0316 µM
[38] = second compound 0.01 µM, first compound 0.1 µM
[39] = second compound 0.01 µM, first compound 0.316 µM
[40] = second compound 0.01 µM, first compound 1 µM
[41] = second compound 0.01 µM, first compound 3.16 µM
[42] = second compound 0.01 µM, first compound 10 µM
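Note: spheroids exposed to agents for seven days before readout.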
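Throughout, for viability, T/C: percent of vehicle DMSO control viability so 100% = untreated growth.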

Question: With CC1(C)CCC(CN2CCN(c3ccc(C(=O)NS(=O)(=O)c4ccc(NCC5CCOCC5)c([N+](=O)[O-])c4)c(Oc4cnc5[nH]ccc5c4)c3)CC2)=C(c2ccc(Cl)cc2)C1 + CC(Nc1ncnc2nc[nH]c12)c1cc2cccc(Cl)c2c(=O)n1-c1ccccc1 as the molecule, how does the IC50 [1] read?
Answer: > 10 µM

Question: And the IC50 [2]?
Answer: > 10 µM

Question: What about the IC50 [3] of the same molecule?
Answer: > 10 µM

Question: And the IC50 [4]?
Answer: > 10 µM

Question: What about the IC50 (curve of first compound, second compound 3.16 µM) of the same molecule?
Answer: > 10 µM

Question: And the IC50 (curve of first compound, second compound 10 µM)?
Answer: > 10 µM

Question: What about the viability, T/C [5] of the same molecule?
Answer: 96.7%

Question: And the viability, T/C [6]?
Answer: 88.3%

Question: And the viability, T/C [7]?
Answer: 95.9%

Question: What about the viability, T/C [8] of the same molecule?
Answer: 93%

Question: And the viability, T/C [9]?
Answer: 87.3%

Question: What about the viability, T/C [10] of the same molecule?
Answer: 81.8%

Question: What about the viability, T/C [11] of the same molecule?
Answer: 102%

Question: What about the viability, T/C [12] of the same molecule?
Answer: 77.1%

Question: What about the viability, T/C [13] of the same molecule?
Answer: 79%

Question: What about the viability, T/C [14] of the same molecule?
Answer: 99.1%

Question: What about the viability, T/C [15] of the same molecule?
Answer: 80.8%

Question: And the viability, T/C [16]?
Answer: 86.7%

Question: And the viability, T/C [17]?
Answer: 92.5%

Question: What about the viability, T/C [18] of the same molecule?
Answer: 100%

Question: What about the viability, T/C [19] of the same molecule?
Answer: 102%

Question: And the viability, T/C [20]?
Answer: 106%

Question: And the viability, T/C [21]?
Answer: 88.3%

Question: And the viability, T/C [22]?
Answer: 81.6%

Question: And the viability, T/C [23]?
Answer: 81%

Question: And the viability, T/C [24]?
Answer: 89.8%

Question: And the viability, T/C [25]?
Answer: 77.5%

Question: What about the viability, T/C [26] of the same molecule?
Answer: 93.8%

Question: And the viability, T/C [27]?
Answer: 92.1%

Question: What about the viability, T/C [28] of the same molecule?
Answer: 96%

Question: What about the viability, T/C (second compound 3.16 µM, first compound 0.0316 µM) of the same molecule?
Answer: 80.5%

Question: And the viability, T/C (second compound 3.16 µM, first compound 0.1 µM)?
Answer: 84%

Question: What about the viability, T/C (second compound 3.16 µM, first compound 0.316 µM) of the same molecule?
Answer: 71.8%

Question: What about the viability, T/C (second compound 3.16 µM, first compound 1 µM) of the same molecule?
Answer: 81.2%

Question: And the viability, T/C (second compound 3.16 µM, first compound 3.16 µM)?
Answer: 67%

Question: What about the viability, T/C (second compound 3.16 µM, first compound 10 µM) of the same molecule?
Answer: 65.7%

Question: What about the viability, T/C (second compound 10 µM, first compound 0.0316 µM) of the same molecule?
Answer: 61%

Question: What about the viability, T/C (second compound 10 µM, first compound 0.1 µM) of the same molecule?
Answer: 64.3%

Question: What about the viability, T/C (second compound 10 µM, first compound 0.316 µM) of the same molecule?
Answer: 68.6%

Question: And the viability, T/C (second compound 10 µM, first compound 1 µM)?
Answer: 65.8%

Question: What about the viability, T/C (second compound 10 µM, first compound 3.16 µM) of the same molecule?
Answer: 50.4%

Question: What about the viability, T/C (second compound 10 µM, first compound 10 µM) of the same molecule?
Answer: 55.1%

Question: For C=CC(=O)N1CCN(c2nc(=O)n(-c3c(C)ccnc3C(C)C)c3nc(-c4c(O)cccc4F)c(F)cc23)C(C)C1 (stereo not drawn) + COc1c(OCCCN2CCOCC2)ccc2c3n(c(=NC(=O)c4cnc(N)nc4)nc12)CCN3, which IC50 [29] is on record?
Answer: > 10 µM

Question: And the IC50 [30]?
Answer: > 10 µM

Question: And the IC50 [1]?
Answer: > 10 µM

Question: And the IC50 [2]?
Answer: < 0.0316 µM

Question: And the IC50 [3]?
Answer: < 0.0316 µM

Question: What about the IC50 [4] of the same molecule?
Answer: < 0.0316 µM

Question: What about the viability, T/C [31] of the same molecule?
Answer: 92.7%

Question: What about the viability, T/C [32] of the same molecule?
Answer: 94.5%

Question: And the viability, T/C [33]?
Answer: 96.1%

Question: And the viability, T/C [34]?
Answer: 99.7%

Question: What about the viability, T/C [35] of the same molecule?
Answer: 118%

Question: What about the viability, T/C [36] of the same molecule?
Answer: 94.9%

Question: And the viability, T/C [37]?
Answer: 74.4%

Question: And the viability, T/C [38]?
Answer: 73.8%

Question: And the viability, T/C [39]?
Answer: 89.2%

Question: And the viability, T/C [40]?
Answer: 88.7%

Question: And the viability, T/C [41]?
Answer: 98.2%

Question: And the viability, T/C [42]?
Answer: 82.2%

Question: What about the viability, T/C [5] of the same molecule?
Answer: 63%

Question: What about the viability, T/C [6] of the same molecule?
Answer: 56.9%

Question: And the viability, T/C [7]?
Answer: 55.3%

Question: What about the viability, T/C [8] of the same molecule?
Answer: 75.8%

Question: And the viability, T/C [9]?
Answer: 77.4%

Question: And the viability, T/C [10]?
Answer: 73.3%

Question: What about the viability, T/C [11] of the same molecule?
Answer: 36%

Question: What about the viability, T/C [12] of the same molecule?
Answer: 34.6%

Question: And the viability, T/C [13]?
Answer: 34.9%

Question: And the viability, T/C [14]?
Answer: 45.1%

Question: And the viability, T/C [15]?
Answer: 45.1%

Question: And the viability, T/C [16]?
Answer: 42.8%

Question: And the viability, T/C [17]?
Answer: 19.2%

Question: And the viability, T/C [18]?
Answer: 17.3%

Question: What about the viability, T/C [19] of the same molecule?
Answer: 22.8%

Question: What about the viability, T/C [20] of the same molecule?
Answer: 17.3%

Question: What about the viability, T/C [21] of the same molecule?
Answer: 20.8%

Question: What about the viability, T/C [22] of the same molecule?
Answer: 15.9%

Question: What about the viability, T/C [23] of the same molecule?
Answer: 5.1%

Question: And the viability, T/C [24]?
Answer: 5.86%

Question: And the viability, T/C [25]?
Answer: 5.59%

Question: What about the viability, T/C [26] of the same molecule?
Answer: 5.93%

Question: And the viability, T/C [27]?
Answer: 7.35%

Question: And the viability, T/C [28]?
Answer: 3.61%

Question: COc1c(OCCCN2CCOCC2)ccc2c3n(c(=NC(=O)c4cnc(N)nc4)nc12)CCN3 was tested. Which viability, T/C (compound 0.00316 µM) did it give?
Answer: 96.6% [middle of 8 runs]

Question: What about the viability, T/C (compound 0.01 µM) of the same molecule?
Answer: 80.7% [middle of 8 runs]

Question: What about the viability, T/C (compound 0.0316 µM) of the same molecule?
Answer: 59.6% [middle of 8 runs]

Question: And the viability, T/C (compound 0.1 µM)?
Answer: 36.6% [middle of 8 runs]

Question: And the viability, T/C (compound 0.316 µM)?
Answer: 15.3% [middle of 7 runs]

Question: What about the viability, T/C (compound 1 µM) of the same molecule?
Answer: 4.26% [middle of 8 runs]

Question: And the IC50 (compound alone, run of 06/13/2023)?
Answer: 47.6 nM [middle of 8 runs]

Question: What does the source list for CCCS(=O)(=O)Nc1ccc(F)c(C(=O)c2c[nH]c3ncc(-c4ccc(Cl)cc4)cc23)c1F + CC(Nc1ccc2c(c1)OCCn1cc(N3C(=O)OCC3C(F)F)nc1-2)C(N)=O?
Answer: IC50 [29]: 5.21 µM; IC50 [30]: 5.49 µM; IC50 [1]: 4.3 µM; IC50 [2]: 3.43 µM; IC50 [3]: 3.84 µM; IC50 [4]: < 0.0316 µM; viability, T/C [31]: 98%; viability, T/C [32]: 90.1%; viability, T/C [33]: 102%; viability, T/C [34]: 103%; viability, T/C [35]: 84.1%; viability, T/C [36]: 5.37%; viability, T/C [37]: 80.5%; viability, T/C [38]: 88.5%; viability, T/C [39]: 97.6%; viability, T/C [40]: 100%; viability, T/C [41]: 92.3%; viability, T/C [42]: 4.83%; viability, T/C [5]: 76.3%; viability, T/C [6]: 90%; viability, T/C [7]: 87%; viability, T/C [8]: 91.2%; viability, T/C [9]: 66.9%; viability, T/C [10]: 3.26%; viability, T/C [11]: 71.9%; viability, T/C [12]: 77.4%; viability, T/C [13]: 69.1%; viability, T/C [14]: 66.4%; viability, T/C [15]: 54.5%; viability, T/C [16]: 4.8%; viability, T/C [17]: 64.4%; viability, T/C [18]: 67.4%; viability, T/C [19]: 65.8%; viability, T/C [20]: 48.9%; viability, T/C [21]: 59.7%; viability, T/C [22]: 4.86%; viability, T/C [23]: 49.1%; viability, T/C [24]: 48.2%; viability, T/C [25]: 46%; viability, T/C [26]: 46.2%; viability, T/C [27]: 41.3%; viability, T/C [28]: 5.27%

Source: PubChem BioAssay AID1963985 (Molecular Pharmacology Branch, DTP, NCI, 2024)
